# Experimental data published in patent US20120045500A1, “NOVEL DIOXO-IMIDAZOLIDINE DERIVATIVES, WHICH INHIBIT THE ENZYME SOAT-1, AND PHARMACEUTICAL AND COSMETIC COMPOSITIONS CONTAINING THEM” (GALDERMA RESEARCH & DEVELOPMENT, priority 2009, published 2012).
# Test system: not given
# Experiment: not given
# Conditions: not given
row,SMILES,melting point [°C]
1,"Cc1ccc(N2C(=O)N(CC(=O)Nc3c(C(C)C)cccc3C(C)C)C(=O)C23CCC(O)CC3)cc1 (stereo not drawn) [Compound 6, N-(2,6-Diisopropylphenyl)-2-(8-hydroxy-2,4-dioxo-1-p-tolyl-1,3-diazaspiro[4.5]dec-3-yl)acetamide]",142 to 144
2,"CC(=O)N1CCC2(CC1)C(=O)N(CC(=O)Nc1c(C(C)C)cccc1C(C)C)C(=O)N2c1ccc(C)cc1 [Compound 1, 2-(8-acetyl-2,4-dioxo-1-p-tolyl-1,3,8-triazaspiro[4.5]dec-3-yl)-N-(2,6-diisopropylphenyl)acetamide]",136 to 138

# Target: T1, enzyme ACAT-1 (Homo sapiens, UniProt P35610)
# T1 construct: endogenous in cells; host or cells: HepG2
# T1 sequence (P35610 1-550): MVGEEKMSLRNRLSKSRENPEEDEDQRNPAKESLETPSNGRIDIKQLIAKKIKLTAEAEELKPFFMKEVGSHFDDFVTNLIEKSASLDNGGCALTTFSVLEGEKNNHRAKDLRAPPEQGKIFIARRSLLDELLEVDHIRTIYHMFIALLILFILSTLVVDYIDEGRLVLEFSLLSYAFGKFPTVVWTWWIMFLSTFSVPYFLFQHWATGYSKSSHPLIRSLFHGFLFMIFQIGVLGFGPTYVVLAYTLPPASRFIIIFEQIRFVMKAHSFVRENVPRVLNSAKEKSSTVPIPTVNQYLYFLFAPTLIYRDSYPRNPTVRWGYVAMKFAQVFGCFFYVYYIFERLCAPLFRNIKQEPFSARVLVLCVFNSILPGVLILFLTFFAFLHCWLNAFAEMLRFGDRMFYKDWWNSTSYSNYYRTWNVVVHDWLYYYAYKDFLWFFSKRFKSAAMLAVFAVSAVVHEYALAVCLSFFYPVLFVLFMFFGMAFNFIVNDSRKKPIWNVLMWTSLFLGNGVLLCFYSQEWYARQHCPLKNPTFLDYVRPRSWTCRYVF
# Experiment: HepG2 NBD-cholesterol fluorescence test for inhibitory activity towards the enzyme ACAT-1 (SOAT-1)
# Format: cell-based
# Conditions: not given
# Experimental: The compounds (I) according to the invention, and also the pharmaceutically acceptable salts, solvates and/or hydrates thereof, have inhibitory properties on the enzyme SOAT-1. This inhibitory activity on the enzyme SOAT-1 is measured according to a HepG2 primary enzymatic test, as described in Example 15.
# The compounds of formula (I) according to the invention were subjected to a test for evaluating their inhibitory activity towards the enzyme ACAT-1, inspired by the following publication: “Identification of ACAT1- and ACAT2-specific inhibitors using a novel, cell based fluorescence assay: individual ACAT uniqueness”, J. Lipid. Res. (2004) vol. 45, pages 378-386.
# The principle of this test is based on the use of NBD-cholesterol, a cholesterol analogue whose fluorescence depends on its environment. When this molecule is in a polar environment, it is weakly fluorescent, whereas in a non-polar environment, it is strongly fluorescent. Free NBD-cholesterol becomes inserted in cell membranes and is weakly fluorescent in this polar environment. When NBD-cholesterol is esterified with ACAT, the NBD-cholesterol ester enters non-polar lipid droplets and is then strongly fluorescent.
# The method below is applied: HepG2 cells are incubated in the presence of NBD-cholesterol (1 μg/ml) and of the test compound of formula (I) in black transparent-bottomed 96-well plates, at a rate of 30 000 cells per well. After incubation for 6 hours at 37° C. under 5% CO2, the medium is removed by turning upside-down and the cells are washed with twice 100 μl of PBS. After addition of 50 μl of lysis buffer (10 mM NaPO4, 1% Igepal), the plates are shaken for 5 minutes and the fluorescence is read (excitation at 490 nm, emission at 540 nm) on a Fusion machine (Perkin-Elmer).
row,SMILES,IC50 [nM]
1,"Cc1ccc(N2C(=O)N(CC(=O)Nc3c(C(C)C)cccc3C(C)C)C(=O)C23CCN(C)CC3)cc1 [Compound 5, N-(2,6-diisopropylphenyl)-2-(8-methyl-2,4-dioxo-1-p-tolyl-1,3,8-triazaspiro[4.5]dec-3-yl)acetamide]",20
2,"Cc1ccc(N2C(=O)N(CC(=O)Nc3c(C(C)C)cccc3C(C)C)C(=O)C23CCN(C(=O)OC(C)(C)C)CC3)cc1 [Compound 2, 3-[(2,6-diisopropylphenylcarbamoyl)methyl]-2,4-dioxo-1-p-tolyl-1,3,8-triazaspiro[4.5]decane-8-carboxylic acid tert-butyl ester]",29
3,"Cc1ccc(N2C(=O)N(CC(=O)Nc3c(C(C)C)cccc3C(C)C)C(=O)C23CCN(Cc2ccccc2)CC3)cc1 [Compound 4, 2-(8-benzyl-2,4-dioxo-1-p-tolyl-1,3,8-triazaspiro[4.5]dec-3-yl)-N-(2,6-diisopropylphenyl)acetamide]",5.8
4,"CC(=O)N1CCC2(CC1)C(=O)N(CC(=O)Nc1c(C(C)C)cccc1C(C)C)C(=O)N2c1ccc(C)cc1 [Compound 1, 2-(8-acetyl-2,4-dioxo-1-p-tolyl-1,3,8-triazaspiro[4.5]dec-3-yl)-N-(2,6-diisopropylphenyl)acetamide]",1600
5,"Cc1ccc(N2C(=O)N(CC(=O)Nc3c(C(C)C)cccc3C(C)C)C(=O)C23CCN(C(=O)c2ccccc2)CC3)cc1 [Compound 3, 2-(8-benzoyl-2,4-dioxo-1-p-tolyl-1,3,8-triazaspiro[4.5]dec-3-yl)-N-(2,6-diisopropylphenyl)acetamide]",86

# Same assay, conditions: HepG2 cells, NBD-cholesterol 1 μg/ml, incubation 6 hours at 37° C., fluorescence read (490/540 nm); read-out: IC50
row,SMILES,IC50 [nM]
1,"Cc1ccc(N2C(=O)N(CC(=O)Nc3c(C(C)C)cccc3C(C)C)C(=O)C23CCSCC3)cc1 [Compound 7, N-(2,6-diisopropylphenyl)-2-(2,4-dioxo-1-p-tolyl-8-thia-1,3-diazaspiro[4.5]dec-3-yl)acetamide]",1.8
2,"Cc1ccc(N2C(=O)N(CC(=O)Nc3c(C(C)C)cccc3C(C)C)C(=O)C23CCC(F)(F)CC3)cc1 [Compound 8, 2-(8,8-difluoro-2,4-dioxo-1-p-tolyl-1,3-diazaspiro[4.5]dec-3-yl)-N-(2,6-diisopropylphenyl)acetamide]",1.5
3,"Cc1ccc(N2C(=O)N(CC(=O)Nc3c(C(C)C)cccc3C(C)C)C(=O)C23CCC(O)CC3)cc1 (stereo not drawn) [Compound 6, N-(2,6-Diisopropylphenyl)-2-(8-hydroxy-2,4-dioxo-1-p-tolyl-1,3-diazaspiro[4.5]dec-3-yl)acetamide]",6.4
4,"CCc1cccc(CC)c1NC(=O)CN1C(=O)N(c2ccc(C)cc2)C2(CCOCC2)C1=O [Compound 11, N-(2,6-diethylphenyl)-2-(2,4-dioxo-1-p-tolyl-8-oxa-1,3-diazaspiro[4.5]dec-3-yl)acetamide]",9.4
5,"Cc1ccc(N2C(=O)N(CC(=O)Nc3c(C(C)C)cccc3C(C)C)C(=O)C23CCOCC3)cc1 [Compound 9, N-(2,6-diisopropylphenyl)-2-(2,4-dioxo-1-p-tolyl-8-oxa-1,3-diazaspiro[4.5]dec-3-yl)acetamide]",0.4
